The values that follow come from patent US20220226357A1, “METHODS FOR TREATING NEURODEGENERATIVE DISORDERS” (THOMAS JEFFERSON UNIVERSITY, priority 2019, published 2022).

The subject of assay [1] is AAV-A53T α-synuclein rat model. Put plainly: Striatal dopamine and metabolite levels (UHPLC, electrochemical detection). Particulars: for DA / DOPAC: striatum. Format: in vivo. The procedure: Institutional Animal Care and Use Committee and conducted in accordance with the National Institutes of Health Guide for the Care and Use of Laboratory Animals. Adult male Sprague-Dawley rats (Envigo), 250 to 300 g at the time of surgery, were housed three per cage with ad libitum access to food and water during a 12-hour light/dark cycle. All surgeries were performed under general anesthesia using a mixture of ketamine (100 mg/kg, i.p.) and xylazine (10 mg/kg, i.p.). Once animals were anesthetized, the head was shaved and surgically prepped with Betadine solution and alcohol before being placed in a Kopf stereotaxic frame with the incisor bar set at approximately 3.5 mm below horizontal zero to achieve a flat skull position. The skin on the top of the skull was cut along the midline and retracted. […] Following a 5 minute wait period after completion of the injection, the needle was slowly withdrawn, the skin wound was closed, and post-surgery analgesia (meloxicam 1 mg/kg) was administered. Some rats were randomly assigned to receive daily GM1 ganglioside (porcine brain derived GM1, 30 mg/kg, i.p., Qilu Pharmaceutical Co., Ltd.) or similar volume saline injections beginning 24 hours after AAV-A53T-synuclein surgery and lasting for 6 weeks (early start group). Other animals were randomly assigned to receive daily GM1 ganglioside (porcine brain derived GM1, 30 mg/kg, i.p., Qilu Pharmaceutical Co.) or similar volume saline injections beginning 3 weeks after AAV-A53T-synuclein surgery and lasting for 5 weeks (delayed start group). […] At the conclusion of the study, animals were euthanized, fresh brains were rapidly removed, and two to three striatal samples from both sides were dissected and immediately frozen for later analyses. The remainder of the brain (including the striatum beginning at the level of the decussation of the anterior commissure) was submersion fixed in 4% paraformaldehyde.
Striatal samples were sonicated cold in 0.4 M perchloric acid for 10 seconds and centrifuged at 13,000 rpm for 10 min at 4° C. The supernatant was removed and was diluted 1:4 with Milli-Q ultrapure water (resistivity 18.2 MΩ·cm) containing internal standard (isoproterenol, 4 ng). The diluted samples were centrifuged again at 13,000 rpm for 5 min at 4° C. Samples were kept on ice prior to loading into the refrigerated (4° C.) autosampler integrated with the HPLC system. An ALEXYS UHPLC system (Antec Scientific) with electrochemical detection (Decade Elite electrochemical detector with a glassy carbon electrode) was used for the analyses. […] The mobile phase (pH 3.0) consisted of 100 mM phosphoric acid, 100 mM citric acid, 0.1 mM EDTA.Na2, 600 mg/L octanesulfonic acid sodium salt, and 8% acetonitrile. Pump flow rate was 50 μl/min. The analytes were detected at an oxidation potential of 600 mV against a reference electrode at 0 mV. Data were acquired and processed using Clarity software (v7.4.1) (DataApex). Peak heights were compared against internal standard curves to determine the concentrations of DA and metabolites in each sample.

Assay [2] concerns AAV-A53T α-synuclein rat model. Briefly: Immunohistochemistry of Ser129-phosphorylated α-synuclein in the SN. Format: in vivo. To be noted: delayed start GM1; 8 weeks after AAV-A53T; not quantified.
For assay [3], the system named is differentiated SH-SY5Y cells. Briefly: Uptake of GFP-α-Syn from conditioned medium. It counts as cell-based. Particulars: 100 μM GM1, 24 hrs, conditioned medium of MN9D cells expressing GFP-tagged human WT α-Syn. The protocol:
It has recently become appreciated that cell-to-cell transfer of α-Syn may be an important factor in the progression of synucelinopathies. Cell-to-cell transfer of α-Syn can occur as free α-Syn or as α-Sy-containing exosomes. Herein, a preliminary study was conducted to assess the extent to which GM1 can influence α-Syn release and/or uptake by neighboring cells. MIN9D dopaminergic cells stably expressing human WT α-Syn tagged with GFP were cultured to ˜90% confluency and shifted to serum free media for 48 hours to generate conditioned medium (CM), which was collected, spun at 1000 rpm for 10 minutes and filtered through a sterile […] filter. Normal SH-SY5Y cells (ATCC) were plated in 8 well chamber slides and differentiated in 10 μM retinoic acid for 7 days. Sterile CM or regular medium were used to replace 50% of the medium in each well. The cells were grown in the CM for 24 hours in presence or absence of 100 μM GM1, fixed in 4% paraformaldehyde for 10 minutes, and processed for enhanced visualization of GFP using GFP immunofluorescence.

For assay [4], the system named is AAV-A53T α-synuclein rat model. Put plainly: Insoluble pSer129 α-Syn immunofluorescence in SN after proteinase K. Format: in vivo. Particulars: GM1 30 mg/kg/day i.p. for 2 wks, starting 24 hrs after AAV-A53T. The text has this:
However, GM1 administration may affect α-Syn phosphorylation and aggregation in vivo. Some studies have reported that in vitro, GM1 and α-Syn interact, resulting in an absence of fibril formation and an increase in helical folding propensity, resulting in GM1-mediated protection against aggregation. […] It was proposed herein that a mechanism that underlies the ability of GM1 to reduce α-Syn-related neurotoxicity is that GM1 administration reduces α-Syn phosphorylation and thus aggregation, and toxicity, in vivo. […] Beginning 24 hours after AAV administration, some animals received daily i.p. injections of saline and others received daily i.p. injections of GM1 (30 mg/kg). Animals were euthanized 2 weeks following initiation of saline or GM1 administration. Brains were subsequently sectioned and SN sections were treated with proteinase K and then processed for pSer129 α-Syn immunofluorescence.

In assay [5] the test system is AAV-A53T α-synuclein rat model. Briefly: Beclin-1 protein expression in the SN. It counts as in vivo. To be noted: 2 wks after AAV-A53T vector injection; N=8/grp. The text has this: The pathological phenotype of various storage disorders comprises increased α-Syn accumulation and aggregation and this increased α-Syn accumulation and aggregation has been linked to lysosomal dyfunction. Also, DA neuron degeneration induced by excess α-Syn in AAV-A53T rats is linked to a progressive decline in autophagic activity and in markers of lysosome function.

The mark [6] stands for this setting: delayed start GM1, 8 weeks after AAV-A53T.
Where [7] appears, read: early start GM1, 6 weeks after AAV-A53T.
Where [8] appears, read: AAV-A53T/Early GM1, injected side.
Setting [9] is: AAV-A53T/Early GM1, non-injected side.

“Also recorded” adds a separate entry of the source. Marks after values point to notes of the source that are not given here.

With GM1 ganglioside, the “DOPAC levels on the injected side, % of non-injected side” value in assay [1] (setting [6]) came out at 82.0±8.4%. For the same substance, the “DOPAC/DA ratio on the injected side, % of contralateral side” value in assay [1] (setting [6]) was 150.0±10.9%; in assay [1] (setting [7]) it was 112.3±9.5%. Also, the “striatal DA levels on the injected side, % of contralateral side” value is reported as 55.0±3.9% in assay [1] (setting [6]) and 64.0±3.5% in assay [1] (setting [7]). For the same substance, the DA in assay [1] (AAV-A53T/Delayed GM1, injected side) is recorded as 5.87 ± 0.47^b μg/g wet tissue; in assay [1] (AAV-A53T/Delayed GM1, non-injected side) it was 10.73 ± 0.54 μg/g wet tissue; in assay [1] (setting [8]), 7.29 ± 0.45^a μg/g wet tissue; in assay [1] (setting [9]), 11.43 ± 0.32 μg/g wet tissue. The DOPAC in assay [1] (AAV-A53T/Delayed GM1, injected side, two outlier samples removed) is reported as 0.93 ± 0.12^ μg/g wet tissue; in assay [1] (AAV-A53T/Delayed GM1, non-injected side, two outlier samples removed) it was 1.18 ± 0.10^ μg/g wet tissue; in assay [1] (setting [8]), 0.85 ± 0.09 μg/g wet tissue; in assay [1] (setting [9]), 1.33 ± 0.10 μg/g wet tissue. Also, the “Ser129-phosphorylated α-synuclein staining in the SN, GM1 vs saline” value in assay [2] is “less intense cytoplasmic Ser129-phosphorylated α-synuclein staining and fewer/smaller nuclear aggregates; also recorded: more Ser129 phosphorylated α-synuclein staining in saline-treated animals compared to GM1-treated animals”. In addition, in assay [3], the “uptake of GFP-α-Syn into SH-SY5Y cells” value is “reduced levels of GFP-α-Syn; also recorded: reduced uptake of GFP-α-Syn”. Moreover, the “insoluble pSer129 α-Syn-positive cells and pSer129 α-Syn per cell in the SN, GM1 vs saline” value in assay [4] is “significantly fewer pSer129 α-Syn-positive cells and less pSer129 α-Syn per cell; also recorded: fewer SN neurons expressing insoluble pSer129 and decreased pSer129 expression per neuron”. Also, in assay [5], the “SN Beclin-1 protein expression, GM1 vs saline” value is listed as “reversed increased SN Beclin-1 levels; also recorded: significantly increased in saline-treated vs. GM1-treated animals”.
